Like-named read-outs stand apart in the source and are kept apart here.
What was measured:
[1] = Oral bioavailability in the rat based on liver nucleotide concentrations
Procedure: At pre-specified times of 20 min, 1, 3, 5, 8, 16, and 24 hrs post dose, liver samples (˜1 g) were collected by freeze-clamping and homogenized in 3 volumes of ice-cold 60% acetonitrile. Following centrifugation to clarify the homogenate, aliquots of the supernatants (100 μL) were evaporated to dryness on a Savant Speed-Vac Plus (1 hr, room temperature). The resulting dried residue was reconstituted with 100 μL of mobile phase and then analyzed for nucleotides by an LC-MS/MS method as described below.
The reconstituted extracts in mobile phase A (20 mM N,N-dimethylhexylamine and 10 mM propionic acid in 20% methanol) were analyzed by LC-MS/MS (Applied Biosystems, API 4000) equipped with an Agilent 1100 binary pump and a LEAP injector. […] Where possible, the quantitative analysis of liver NMP, NDP, and NTP were calculated based on a calibration curve generated from their respective standards (0.01-30 μM).
The area under the curve (AUC) to the last measurable time point were calculated by trapezoidal summation of the liver concentration-time profile of total nucleotides and NTP. The OBAV was determined by dividing the dose-normalized AUC following oral administration by the AUC following IV dosing.

[2] = Susceptibility to non-productive metabolism (deamination) in vitro in rat whole blood or plasma; assay type: in vitro ADME
Procedure: The susceptibility of 2′-β-C-methyladenosine, and its 2′,3′-carbonate prodrugs to non-productive metabolism was evaluated in vitro and in vivo. […] Aliquots of the blood and plasma samples were removed periodically and extracted with perchloric acid and methanol, respectively, and then centrifuged. The acidic supernatants were neutralized with potassium carbonate and recentrifuged. […] Analysis (50 μL) was performed on an Agilent Zorbax SB-Aq column (4.6×150 mm) eluted with a gradient consisting of a mixture of Buffer A (20 mM potassium phosphate pH 6.2) and Buffer B (acetonitrile) (0-10 min, 0-10%; 10-20 min, 10-80%, 20-21 min, 80-0%; 21-30 min, 0-0%) and UV absorbance monitoring at 265 nm. The flow rate was 1.5 mL/min and the column temperature was set at 40° C. Concentrations of metabolite were determined from calibration curves prepared by spiking known amounts of standards to plasma and processing as before.

[3] = rat, in vivo
Procedure: Analog and Its 2′,3′-Carbonate Prodrugs The liver selectivity of an antiviral nucleoside, 2′-B-C-methyladenosine, and its 2′,3′-carbonate prodrugs was evaluated in the rat by comparing liver nucleotide concentrations to levels of a major metabolite in the plasma or to concentrations of extrahepatic nucleotides. An elevated liver selectivity index is an indication of improved liver targeting of the antiviral agent and reduced exposure to other organs that may be potential targets of toxicity.
At pre-specified times of 20 min, 1, 3, 5, 8, 16, and 24 hrs post dose, liver, heart, and thigh muscle samples (˜1 g) were harvested by freeze-clamping and homogenized in 3 volumes of ice-cold acetonitrile. Following centrifugation to clarify the homogenate, aliquots of the tissue extracts were evaporated to dryness on a Savant Speed-Vac Plus (1 hr, room temperature). The resulting dried residue was reconstituted with 100 μL of mobile phase and then analyzed for nucleotides by an LC-MS/MS method as described in Example I. In addition to solid tissue, blood was collected in heparin tubes at the pre-specified times and centrifuged to obtain plasma. The plasma samples (100 μL) were extracted with 1.5 volumes of methanol and centrifuged for 20 min at top speed on a microfuge. Plasma concentrations of a major metabolite of 2′-B-C-methyladenosine, i.e., 2′-B-C-methylinosine, were determined by LC-UV as described in Example E.
The area under the curve (AUC) to the last measurable time point was calculated by trapezoidal summation of the liver, heart, and muscle concentration-time profile of total nucleotides and NTP and of the plasma concentration-time profile of the major metabolite 2′-B-C-methylinosine. The liver selectivity index was determined by two methods: (1) dividing liver NTP AUC by heart nucleotide AUC and (2) dividing liver NTP AUC by plasma 2′-3-C-methylinosine AUC.

HCV = test: Antiviral activity in HCV-infected human liver slice assay; assay type: cell-based, hepatitis C virus; settings: HCV RNA in culture media
Procedure: The effect of various compounds on HCV replication in human liver tissue was evaluated as described below.
Liver from a brain-dead HCV antibody-positive human patient was perfused with ice-cold Viaspan (Dupont Pharmaceutical) preservation solution and received on ice in Viaspan.
Precision-cut liver slices of ˜200-250 μm thickness and […] diameter were prepared and cultured in Waymouth's cell culture medium (Gibco, Inc.) that was supplemented with 10% fetal bovine serum and 10 mL/L Fungi-Bact at 37° C., and gassed with carbogen (95% O2, 5% CO2) at 0.75 liters/min. Tissue slices were maintained in culture for 72 h. Cell culture medium containing test compound in solution was changed on a daily basis.
At appropriate times of liver slice incubation, liver slices and medium were collected for analysis of HCV RNA (tissue and medium) and nucleotide levels (NTP). All collected media and tissue slices were maintained in liquid N2 until analysis.
Medium and tissue samples were analyzed for HCV RNA levels according to published procedures (Bonacini et. al., 1999) which utilize an automated, multicycle, polymerase chain reaction (PCR)-based technique. This assay has a lower limit of detection for HCV RNA of 100 viral copies/ml. Frozen liver slices were disrupted by using a combination of ultrasound probe sonication, Branson Sonifier 450 (Branson Ultrasonics, Danbury, Conn.) and homogenization using a Dounce conical pestle in 200 μls of 10% (v/v) perchloric acid (PCA). After a 5 min centrifugation at 2,500×g, the supernatants were neutralized using 3 M KOH/3 M KHCO3 and mixed thoroughly. The neutralized samples were centrifuged at 2,500 g for 5 min and NTP levels were determined by ion exchange phase HPLC (Hewlett Packard 1050) using a Whatman Partisil 5 SAX (5 μm, 4.6×250 mm) column. Samples (50 μL) were injected onto the column in 70% 10 mM ammonium phosphate buffer and 30% 1 M ammonium phosphate buffer, both at pH 3.5 and containing 6% ethanol. Nucleoside triphosphates were eluted from the column using a linear gradient to 80% 1 M ammonium phosphate pH 3.5/6% ethanol buffer, at a flow rate of 1.25 mL/min and detected by UV absorbance (254 nm).

[4] = Susceptibility to non-productive metabolism in vivo: 2′-β-C-methylinosine AUC in rat plasma and tissues; design: species or system male Sprague-Dawley rats; settings: male, Sprague-Dawley
Procedure: The susceptibility of 2′-β-C-methyladenosine, and its 2′,3′-carbonate prodrugs to non-productive metabolism was evaluated in vitro and in vivo. […] Also at the pre-specified times, blood (heparinized) was collected from the vena cava and centrifuged briefly to obtain plasma. […] The supernatant was then analysis for deaminated products and other metabolites by LC-UV as described above.

[5] = Kinetics of conversion of HepDirect-carbonate prodrugs to nucleoside monophosphates by human liver microsomes; assay type: in vitro ADME; settings: activation to NMP, Lineweaver-Burke plot
Procedure: The kinetics of activation of prodrug analogues to NMP were evaluated in the microsomal fraction of human liver.
Human liver microsomes were purchased from In Vitro Technologies. The study was performed at 2 mg/mL human liver microsomes, 100 mM KH2PO4, 10 mM glutathione, 0-250 μM compound, and 2 mM NADPH for 0-7.5 min. in an Eppendorf Thermomixer 5436 (37° C., 850 rpm). The reactions were initiated by addition of NADPH following a 2-min. preincubation. Reactions were quenched with 60% methanol at 0, 2.5, 5, and 7.5 min. The resulting extracts were clarified by centrifugation at 14,000 rpm in an Eppendorf microfuge (20 min.). The supernatants (200 μL) were evaporated under vacuum and, heat to dryness. The dried residue was reconstituted with 200 μL of water and the mixture was centrifuged for 10 min at 14,000 rpm. […] NMP was detected by using MS/MS mode (M^−/78.8) and quantified based on comparison to a standard of lamivudine monophosphate. Kinetic parameters were determined from a Lineweaver-Burke plot of the data with use of SigmaPlot 9.0 software.

[6] = Conversion of Compound 31.5 to 2′-β-methyladenosine in human liver S9; assay type: in vitro ADME; settings: Human liver S9, 37° C., pH 7.4
Procedure: (§1) The rate of Compound 31.5 conversion to nucleoside was evaluated in liver S9 obtained from rat, dog, monkey and human liver. […] The homogenate was centrifuged in a Sorvall RC-5B Refrigerated Superspeed Centrifuge (30 minutes at 10,000 g) and the resulting supernatant used in the assays. The other S9 preparations were purchased from 1n Vitro Technologies. […] Aliquots of the reaction mixture were quenched with 2 volumes of ice-cold acetonitrile/0.2% formic acid (pH 3.0) at appropriate time intervals, briefly vortexed, and then immediately placed on dry ice. After all time points were taken, the samples were centrifuged in an Eppendorf microfuge (14,000 rpm, 10 minutes). The supernatant fractions were analyzed for disappearance of prodrug (and appearance of 2′-β-methyladenosine) by reverse phase HPLC on an Agilent Zorbax SB-Aq column (511m, 4.6×150 mm). The loading mobile phase buffer (Buffer A) consisted of a 9:1 ratio (v/v) of 20 mM potassium phosphate, pH 6.2 and acetonitrile. […] The elution of reaction components was monitored at […]. Quantitation was by comparison to authentic standards prepared in liver S9 and processed in an identical fashion to the unknown samples. The rate of prodrug conversion was calculated from the linear portion of the reaction curves and expressed as nmoles converted per mg of S9 protein per minute of reaction time.

[7] = Conversion of Compound 31.5 to 2′-β-methyladenosine in monkey liver S9; assay type: in vitro ADME; settings: Monkey liver S9, 37° C., pH 7.4
Procedure: as §1

[8] = Conversion of Compound 31.5 to 2′-β-methyladenosine in dog (Beagle) liver S9; assay type: in vitro ADME; settings: Beagle liver S9, 37° C., pH 7.4
Procedure: as §1

[9] = Conversion of Compound 31.5 to 2′-β-methyladenosine in rat liver S9; assay type: in vitro ADME; settings: Rat liver S9, 37° C., pH 7.4
Procedure: as §1

Molecule	% decrease in viral RNA relative to untreated liver slices (HCV; 0.25 μM)	% decrease in viral RNA relative to untreated liver slices (HCV; 2.5 μM)	% decrease in viral RNA relative to untreated liver slices (HCV; 25 μM)	% decrease in viral RNA relative to untreated liver slices (HCV; 100 μM)	deaminated product 2′-B-C-methylinosine in plasma, liver, heart, and muscle tissue [4]	ORAL BIOAVAILABILITY ([1]; male, Sprague-Dawley, in vivo)	deaminated product (2′-β-C-methylinosine) after incubation in rat whole blood in vitro ([2]; rat)	Heart Nucleotides AUC ([3]; male, Sprague-Dawley)	Plasma 2′-β-C-Methylinosine AUC ([3]; male, Sprague-Dawley)	Km [5]	Vmax [5]	Liver NTP AUC ([3]; male, Sprague-Dawley)	other results
2′-β-C-methyladenosine [reference compound]	0%	83%	94%	92%	–	–	–	–	–	–	–	–	ORAL BIOAVAILABILITY ([1]; dose-normalized liver nucleotide AUC oral / IV): < 5%; ORAL BIOAVAILABILITY ([1]; dose-normalized liver nucleotide AUC oral / IV, listed as 2′-β-C-Methyladenosine): 2%; deaminated product (2′-β-C-methylinosine) after incubation in rat whole blood in vitro ([2]; rat whole blood, 37° C.): 2′-β-C-methylinosine was observed; Liver NTP AUC [3]: 15; Plasma 2′-β-C-Methylinosine AUC [3]: 11; Plasma concentrations of the main metabolite, 2′-B-C-methylinosine [3]: detectable; concentrations of nucleotides of 2′-methyladenosine in heart and muscle tissue [3]: measurable in heart and muscle tissue
CC1(C)C[C@@H](c2cccc(F)c2F)OP(=O)(OC[C@H]2O[C@@H](n3cnc4c(N)ncnc43)[C@]3(C)OC(=O)O[C@H]23)O1 (stereo partly drawn) [Compound 30.10, cis-5′-O-[6-(2,3-Difluorophenyl)-4,4-dimethyl-2-oxo-1,3,2-dioxaphosphorinan-2-y]-2′,3′-carbonyl-2′-C-methyl-adenosine]	–	–	–	–	no or only trace levels of the deaminated product were measurable	21%	no deaminated products were detected	< 2.8	< 7.1	44.5 µM	0.12 nmol/min/mg	–	–
C[C@@]12OC(=O)O[C@@H]1[C@@H](CO)O[C@H]2n1cnc2c(N)ncnc21 [Compound 31.5, 2′,3′-Carbonyl-2′-C-beta-methyl-adenosine]	0%	93%	85%	75%	2′-B-C-methylinosine was detected in plasma, liver, heart, and muscle tissue	95%	2′-β-C-methylinosine was observed	23	25	–	–	2522	Specific activity (rate of prodrug disappearance) [6]: 0.03 ± 0.005 nmol/min/mg; Specific activity (rate of prodrug disappearance) [7]: 0.024 ± 0.003 nmol/min/mg; Specific activity (rate of prodrug disappearance) [8]: 2.0 ± 0.3 nmol/min/mg; Specific activity (rate of prodrug disappearance) [9]: 0.28 ± 0.03 nmol/min/mg
C[C@@]12OC(=O)O[C@@H]1[C@@H](COP1(=O)OCC[C@@H](c3ccncc3)O1)O[C@H]2n1cnc2c(N)ncnc21 (stereo partly shown) [Compound 30.1]	–	–	–	–	no or only trace levels of the deaminated product were measurable	–	no deaminated products were detected	2.6	< 7.1	64 µM	0.36 nmol/min/mg	841	–
C[C@@]1(O)[C@H](O)[C@@H](COP2(=O)OCC[C@H](c3cccc(Cl)c3)O2)O[C@H]1n1ccc2c(N)ncnc21 (stereo partly drawn) [Example 16.1, 4-Amino-7-(cis-5′-O-[4-(3-chlorophenyl)-2-oxo-1,3,2-dioxaphosphorinan-2-yl]-2′-C-methyl-beta-D-ribofuranosyl)-7H-pyrrolo[2,3-d]pyrimidine]	–	–	–	–	–	–	–	–	–	–	–	–	melting point: 138 to 141 °C
